Experiments:
[1] = system: R biotype of the California rigid ryegrass; experiment: Glyphosate drops on leaves, resistant biotype; assay type: in vivo, Lolium rigidum; conditions: three 2 µl drops on two leaves, corresponds to 1.12 kg ai ha^-1; one week after treatment; ROUNDUP ULTRA (isopropylamine salt)
Description: Rigid ryegrass (Lolium rigidum Gaud.) plants are collected from an almond orchard intensively treated with glyphosate since 1984. The collected plants are grown and seed produced in greenhouse. The resistant, intermediate and susceptible biotypes are selected in the first generation using 1.12, 2.24, and 3.36 kg ai ha^−1 rates of glyphosate. Further selection is continued with a high glyphosate rate (8.96 kg ai ha^−1) to select for the resistant and with the low rate (0.28 kg ai ha^−1) to select for the susceptible individuals. The resistant (R) and susceptible (S) biotypes used in this example are generated from the 5th and 4th cycle, respectively.
R and S biotypes of the California rigid ryegrass are grown individually to the fully vegetatively mature stage prior to seedhead formation. In one experiment, two fully mature leaves of each plant (one R and one S biotypes) are treated with three 2 μl drops of glyphosate (glyphosate isopropylamine salt, ROUNDUP ULTRA™, Monsanto Co., St. Louis, Mo.) solution applied to the upper leaf surface. This corresponds to a field rate of 1.12 kg ai ha^−1 glyphosate at a volume of 187 L ha^−1 and pressure of 172.5 kPa. One week after treatment, the S biotype is dead, but no injury is observed on the R biotype.

R line of rigid ryegrass = experiment: Dose response study of plant injury, R line; assay type: in vivo, Lolium rigidum
Description: A dose response study is conducted on the R and S lines of rigid ryegrass. The rates of glyphosate applied varied from 0.125×, 0.25×, 0.5×, 1×, 2×, 4×, 6×, 8×, 10×, to 12×. The sprayed solutions and application procedures are similar to those described previously. Plants are evaluated for visual injury at 4 WAT. Data (4 WAT) from two experiments with 8 replications of each treatment are analyzed by non-linear regression and fitted to a log-logistic model:
[formula] where y is predictive of plant injury (% of control), X50=dose required to obtain 50% injury and b is the slope at X50.

[2] = system: F1 progeny of R and S lines of California rigid ryegrass; experiment: Glyphosate sensitivity of F1 progeny (RxS, SxR); assay type: in vivo, Lolium rigidum
Description: Cross-pollination is arranged in the greenhouse between one plant each of the R and S lines which have similar maturity. To prevent pollen contamination from un-wanted ryegrass, the plants are covered with transparent plastic. The likelihood of selfing is less than 3% as discussed in, for example, Thorogood, Perennial Ryegrass (Lolium perenne L.) in M. D. Casler and R. R. Duncan, eds. Turfgrass Biology, Genetics, and Breeding, John Wiley & Sons, Inc., pp. 75-105 (2003). About 500 seeds from both R and S plants are harvested at maturity and kept separately. F1 plants are grown and maintained similarly as previously described. The F1 progeny are evaluated for glyphosate sensitivity when the plants are 5 to 8 cm tall. Glyphosate is sprayed at 0.125×, 0.5×, 0.25×, 1×, 2×, 4×, 6×, and 8× and the spray solutions prepared and delivered as described previously. The response of 10 plants in each of two experiments to glyphosate is recorded 3 and 4 WAT.

[3] = system: EPSPS from R and S biotypes of rigid ryegrass; experiment: EPSPS activity assay in the presence of glyphosate; assay type: biochemical, Lolium rigidum; conditions: glyphosate from 5 to 5000 µM; crown tissue extract; R versus S biotype
Description: Extraction methods for EPSPS are modified from methods discussed in Boerboom et al., Weed Sci. 38:463-467 (1990). Crown tissue (0.5 gram fresh weight per sample) is harvested from California rigid ryegrass plants, frozen in liquid nitrogen, and grounded in a cold mortar with 150 mg polyvinylpolypyrrolidone (PVPP). The fine powder tissue is ground further in 0.5 ml extraction buffer (pH 7.5) containing 10 mM Trizma HC1, 1 mM ethylenediaminetetraacetic acid (EDTA), 10% (v/v) glycerol, 1 mg ml^−1 bovine serum albumin (BSA), 10 mM ascorbate, 1 mM benzamidine (BAM), and 5 mM dithiothreitol (DTT). The mixture is centrifuged at 15,000×g for 10 min, and the supernatant is desalted in 1.0 ml Sephadex G-50 column (^7 MICRO-SPINS® Shephadex G-50 column, Life Science Products Inc., Frederick, Colo.) and further centrifuged at 1,000×g for 3 min. Total protein in the supernatant is quantified spectrometrically at 595 nm followed the method discussed in Bradford, Anal. Biochem 72:248-254 (1976).
Assay of EPSPS activity is modified from methods discussed in Westwood and Weller, Weed Sci. 45:2-11 (1997). […]
Data from duplicate experiments with three replications of each treatment are analyzed by non-linear regression and fitted to a log-logistic model, […]

[4] = system: F2 population from cross between perennial ryegrass and glyphosate resistant rigid ryegrass; experiment: Glyphosate sensitivity of F2 hybrid population; assay type: in vivo, Lolium perenne x Lolium rigidum; conditions: 0.5× glyphosate; 3 WAT
Description: The population of F2 is evaluated for glyphosate sensitivity with 0.5× glyphosate. Severely injured and dead plants are recorded 3 weeks after treatment (WAT) and are designated similar to the sensitive (S) parent. The survivors are re-acclimated for further evaluation at 8× glyphosate. The survivors from 8× glyphosate are designated similar to resistant (R) parent. The rest of the population that responded between S and R are identified as intermediate (I).

O=C(O)CNCP(=O)(O)O [glyphosate, N-(phosphonomethyl) glycine]
Plant injury [1]: no injury | survival (R line of rigid ryegrass; R biotype, 8× glyphosate): survived | ratio of glyphosate rates between the R and S lines for 50% injury (R line of rigid ryegrass; R line versus S line, 4 WAT): > 100 fold | glyphosate rate for 50% injury (R line of rigid ryegrass; R line, visual injury 4 WAT, 1× = 1.12 kg ai ha^-1): 11 × | injury ([2]; 2× glyphosate, 4 WAT): 20-30% | recovery from injury ([2]; 2× glyphosate, after 5 weeks): full recovery | highest glyphosate rate survived ([2]; F1 progeny (RxS) and (SxR)): up to 2 × | effect on F1 plants ([2]; glyphosate at 4× and higher rates): killed | inhibition of EPSPS activity [3]: significantly inhibited more in S than in R | percentage of the sensitive plants in F2 [4]: 16%

From patent publication US7906709B2, “Methods for breeding glyphosate resistant plants and compositions thereof” (priority 2006, dated 2011)
